The record followed here is patent US20130288964A1, “Use of peptides for promoting wound healing” (priority 2008, published 2013).

Series [1] concerns human buccal epithelial cell line TR146. As to the kind of experiment: In vitro wound healing (scratch wound closure) experiments. In kind it is cell-based. The note with it: for Wound closure rel. clos. ± SD: closure approx. 16 h after wounding relative to negative control, synthetic peptides in SFM, * significant. As for the experimental part:
The human buccal epithelial cell line TR146 (Rupniak et al; J Natl Cancer Inst. 1985 October; 75(4):621-35) was kindly provided by Cancer Research UK. Cells were grown in Dulbecco's modified Eagle medium with 4.5 g/l glucose (Invitrogen), 10% FCS (HyClone) and […] penicillin, […] streptomycin, and 250 ng/ml amphotericinB (Antibiotic antimyotic solution, Sigma,), at 37° C., 95% humidity and 5% CO2. Cells were maintained until near confluence and then briefly treated with 0.25% trypsin-EDTA lx (Invitrogen) to detach them, counted in a hepacytometer and seeded into new flasks or multi-well plates at the required cell density of about 1.5×10×5 cells/well.
Wound assays were performed as previously described (Matthay et al., 1993, J Cell Sci. 106 (Pt 3):869-78). In brief, cells were grown in 12-well plates until confluence, and then were serum deprived for 24 hours in keratinocyte serum free medium (SFM (Invitrogen)). In each well a scratch was made in the cellular monolayer using a sterile tip. The wounded monolayer was washed with SFM to remove cellular debris, and the following conditions were applied: • (i) Whole saliva and salivary secretions applied in 30% (v/v) in SFM. As a negative control 30% (v/v) saliva buffer was used. • (ii) (ii) rhEGF (Invitrogen) as a positive control • (iii) rp-HPLC fractions containing salivary proteins; • (iv) synthetic peptides: the experiments with isolated proteins and synthetic peptides were performed in full SFM.
The width of the wound area was determined microscopically immediately after wound creation and at approximately 16 hours after wounding. The relative closure was calculated by relating the closure to that of the negative control.
For inhibitor studies; directly after wounding cells were exposed to inhibitors of ERK1/2 (U0126, 5 μM, LC Laboratories), EGFR (AG1478, 1 μM, Calbiochem), and p38 MAPK (SB203580, 5 μM; LC Laboratories). Experiments were done in quadruplicate and analyzed using One-way ANOVA to determine significance with additional LSD post hoc test, P<0.05 was considered significant.

The conditions of series [2]: Candicidal activity LC50 ± SD. As to the method:
2.3 Potency of Histatin induced wound closure, stereo-specificity of Histatin 2, candidacidal activities of the different histatins. Next the potency of the different Histatins in both wound healing as their candidacidal activities was studied. Histatins are known for their antimicrobial activity.
We tested synthesized Histatins 1, 2, 3, 5 and the enantiomer of Histatin 2 (designated D-Histatin 2) on wound closure and candidacidal activities. In the test concentrations of 1, 5, 10, 30 and 50 μg/ml of the peptides were tested.

The test system of the next series is epithelial cells. In words: Internalization of FITC labeled histatin in epithelial cells (microscopy). In kind it is cell-based, human. The note with it: FITC labeled histatin incubated two hours (data not shown). As for the experimental part: Microscope: Leica DM IL PLAN 4-40x magnification, 0.5 lens; camera: Leica DFC320; and acquisition software: Leica IM500. Images were quantified using Adobe Photoshop CS3. Additionally, brightness/contrast levels of the co-localization studies were altered with Adobe Photoshop CS3. FITC labeled histatin was incubated with the cells for two hours. PI was added to check for membrane disruptive dependent internalization. 100 mM Azide was used for 1 hour. Cells were trypsinized as described above. Co-localization studies were performed using Mitotracker (Invitrogen) and Lysotracker (Invitrogen) following manufacturer's instructions. In Candida Histatin 5 is internalized and associates with the energized mitochondrion. Given the abovementioned discrepancy between C. albicans and epithelial cells we were very interested whether histatins become internalized and where in the cells they accumulate. […] NaN3 inhibits the function of cytochrome c oxidase by binding irreversibly to the heme cofactor. Thus, NaN3 treatment lead us to conclude that the internalization energy dependent. […] Which, in addition to the stereo-specificity, is indicating a receptor mediated process. We used mitochondria and acidic lysosome specific markers to elucidate histatin's fate once it is internalized

Where two headings read alike, the source gives them in different places. Where no end group is shown, it is not given here.

As for `CC(C)C[C@H](NC(=O)[C@H](Cc1ccc(O)cc1)NC(=O)[C@H](CC(N)=O)NC(=O)[C@H](CO)NC(=O)[C@H](CCCNC(=N)N)NC(=O)[C@H](Cc1ccc(O)cc1)NC(=O)CNC(=O)[C@H](CCCNC(=N)N)NC(=O)[C@H](Cc1c[nH]cn1)NC(=O)[C@H](CO)NC(=O)[C@H](Cc1c[nH]cn1)NC(=O)[C@H](Cc1c[nH]cn1)NC(=O)[C@H](CCCCN)NC(=O)[C@H](CCC(=O)O)NC(=O)[C@H](Cc1c[nH]cn1)NC(=O)[C@H](Cc1ccccc1)NC(=O)[C@H](CCCCN)NC(=O)[C@H](CCCNC(=N)N)NC(=O)[C@H](CCCCN)NC(=O)[C@H](Cc1ccc(O)cc1)NC(=O)CNC(=O)[C@H](Cc1c[nH]cn1)NC(=O)[C@H](Cc1c[nH]cn1)NC(=O)[C@H](CCCNC(=N)N)NC(=O)[C@H](CCCCN)NC(=O)[C@H](C)NC(=O)[C@H](Cc1c[nH]cn1)NC(=O)[C@H](CO)NC(=O)[C@@H](N)CC(=O)O)C(=O)N[C@@H](Cc1ccc(O)cc1)C(=O)N[C@@H](CC(=O)O)C(=O)N[C@@H](CC(N)=O)C(=O)O` [Histatin 3], the “Wound closure rel. clos. ± SD” value in series [1] is on record as 1.21 ± 0.12*. For the same molecule, the “induction of wound closure” value in series [1] (synthesized peptides, 1-50 μg/ml) is “induce wound closure”. The “optimal concentration for wound closure” value in series [1] (tested at 1, 5, 10, 30 and 50 μg/ml) lay within 30 to 50 µg/mL. The CC50 was 1100 ± 100 nM in series [2] (1 mM PPB) and more than 100000 nM in series [2] (SFM). The “internalization into epithelial cells” value in the series with epithelial cells is “are internalized”.
Turning to “C-HST1: cyclic peptide having the amino acid sequence according to SEQ. ID. NO. 4, Histatin 1 (DSHEKRHHGYRRKFHEKHHSHREFPFYGDYGSNYLYDN; also: cyclic (type and places not given here))”, the relative wound closure in series [1] (peptide concentration 1*10-3 μM, 1 = no peptide added (FIG. 4)) amounted to 1.5.
“EGF: epidermal growth factor; rhEGF (Invitrogen) as a positive control”: in series [1] (EGF 5 ng/ml), the “induction of wound closure” value is listed as “able to induce wound closure”. Also, the “induced wound closure with EGF receptor blocked” value in series [1] (EGFR inhibitor AG1478 1 μM) is “abolished the effect”. Further, in series [1], the “Wound closure rel. clos. ± SD” value is given as 1.41 ± 0.12*. Further, the “MAPK pathway dependence of induced wound closure” value in series [1] (inhibitors U0126 5 μM (ERK1/2), SB203580 5 μM (p38 MAPK), FIG. 2) is on record as “p38^MAPK dependent”.
